Test results as given in patent publication US11813261B2, “HDAC inhibitors, alone or in combination with BTK inhibitors, for treating chronic lymphocytic leukemia” (ACETYLON PHARMACEUTICALS, INC., priority 2016, dated 2023).
Entries after “also recorded” stand apart in the source; their conditions may differ.

Columns and labels:
Mec1 cells = assay: IL-10 production by Mec1 cells stimulated with LPS; format: cell-based; conditions: Mec1 cells treated 24 hours
[1] = clinical trials, myeloma and lymphoma; cited from earlier work
[2] = test system: C57BL/6 mice adoptively transferred with euTCL1 splenocytes; format: in vivo; conditions: for expression of PD-1 and LAG-3: adoptive transfer, Compound D feed, Compound A injection, 10 weeks post adoptive transfer
Procedure: (§1) Flow cytometric analysis of peripheral blood mononuclear cells (PBMCs) was performed using fluorochrome-labeled monoclonal antibodies and the vitality dye 4′,6-diamidino-2-phenylindole. Data was acquired on an LSRII cytometer (Becton, Dickinson and Company; Franklin Lakes, NJ), and analyzed with FlowJo software (FlowJo; Ashland, Oreg). Absolute cell numbers calculated using AccuCheck Counting beads (ThermoFisher Scientific; Waltham, MA).
(§2) All animal studies involving euTCL1 and its cross with HDAC6KO were performed following established protocols that followed approved Institutional Animal Care and Use Committee (IACUC) procedures. Two mouse models of CLL were used: an Aging CLL model, and an Accelerated CLL Model.
Day 0 • Adoptive transfer of 5×10^6 euTCL1 or euTCL1/1-IDAC6KO splenocytes
Week 3-5 • Flow cytometry analysis • For analysis of disease
Week 9 • Flow cytometry analysis • For analysis of disease
Week 12 • Flow cytometry analysis • For analysis of disease • Observe for survival
Flow cytometry analysis and gating: B-cells (malignant population CD19+/CD5+/CD45R (B220)+/IgM+/Igk+; for normal B-cells CD19+/CD5−/CD45R (B220)+/IgM+/Igk−T-regs were identified as CD3+/CD4+/CD25 hi/IL-7R low. For Co-inhibitory molecule expression CD223 (LAG3), CD279 (PD-1), CD274 (PDL-1), and CD273 (PDL-2).

euTCL1 (CLL model mouse) = assay: Aging CLL model; format: in vivo
Procedure: as §1, §2
Birth • euTCL1 (CLL model mouse) and • euTCL1/HDAC6KO transgenic mice
5-7 Months • Flow cytometry analysis • For analysis of disease
9 Months • Flow cytometry analysis • For analysis of disease
12 Months • Flow cytometry analysis • For analysis of disease • Observe for survival B) Accelerated CLL Model

CLL = conditions: cited from earlier work

Structure (SMILES): O=C(CCCCCCNC(=O)c1cnc(N(c2ccccc2)c2ccccc2)nc1)NO [Compound A, 2-(diphenylamino)-N-(7-(hydroxyamino)-7-oxoheptyl)pyrimidine-5-carboxamide]
- IL-10 production (Mec1 cells): dose-dependent decrease
- tolerability [1]: well-tolerated
- expression of PD-1 and LAG-3 [2]: lower expression; also recorded: reduced

Structure (SMILES): O=C(NO)c1cnc(NC2(c3ccccc3)CC2)nc1 [Compound D, N-hydroxy-2-((1-phenylcyclopropyl)amino)pyrimidine-5-carboxamide]
- disease burden (euTCL1 (CLL model mouse); 9 months old/25 weeks post treatment start date, vs mice treated without Compound D): significantly lower disease burden
- expression of PD-1 and LAG-3 on T-regs (euTCL1 (CLL model mouse); feed daily, flow cytometry, vs mice not treated): lower PD-1 and LAG-3 expression; also recorded: reduced
- overall survival (euTCL1 (CLL model mouse); vs mice not treated): more advantageous overall survival
- expression of PD-L1 on B cells ([2]; B cells isolated from treated mice vs non-treated animals): decrease
- disease burden ([2]; adoptive transfer model): significantly lower disease burden
- overall survival ([2]; adoptive transfer model): more advantageous overall survival
- expression of PD-1 and LAG-3 [2]: lower expression; also recorded: reduced
- PD-1 and LAG3 on CD4+ T-cells ([2]; treatment in chow, week 10 post-adoptive transfer, flow cytometry): normalization

Structure (SMILES): Nc1ccccc1NC(=O)c1ccc(CNc2nccc(-c3cccnc3)n2)cc1 [MGCD0103]
- antileukemic activity in CLL (CLL): induced antileukemic activity

Structure (SMILES): CCCC(CCC)C(=O)O [valproic acid]
- antileukemic activity in CLL (CLL): induced antileukemic activity
